Like-named read-outs stand apart in the source and are kept apart here.
Key:
HEK/CRE/Luc2P cells = assay: Specificity control: forskolin-stimulated CRE-luciferase response in HEK/CRE/Luc2P negative control cells; format: cell-based, human; details: for decrease of forskolin-stimulated response (cAMP levels): forskolin 1 μM, high doses of compound, Figure S2
Procedure: HEK293 cells stably expressing cDNA plasmid of CRE/Luciferase (HEK/CRE/Luc2P) were established as the negative control cells to test the specificity to the D1 receptor for the compounds.
(§1) The pGL4.29 (CRE/luc2P//Hygro) luciferase reporter gene was stably co-transfected with dopamine D1 receptor plasmid or was stably transfected individually in HEK293 cells. Transfection was carried out with lipofectamine 2000 reagent using the protocol provided by Promega. Stable cells expressing CRE-Luciferase and D1 receptor were selected in the presence of 700 μg/mL G418 and 200 μg/mL hygromycin for 10–14 days. Stable cells expressing CRE-Luciferase were singly selected in the presence of 200 μg/mL hygromycin. The obtained stable cells were then cultured with 350 μg/mL G418 and 100 μg/mL hygromycin or only 100 μg/mL hygromycin to maintain the selective growth.
(§2) The examination of CRE-luciferase activity was performed by a modification of methods as described previously. HEK293 stable cells were seeded in 96-well plates at a density of 1.5 × 10^4 cells per well. After cells became adherent, they were […] in serum-starved DMEM for different hours to explore the most suitable starving time. Cells were then pretreated with compounds for 1 h prior to dopamine stimulation. Afterwards, the cells were lysed with luciferase lysis buffer and the luminescence of the firefly luciferase was measured with the FlexStation 3 (Molecular Devices, Sunnyvale, CA, USA).

dopamine D1 receptor = molecular target: T1, dopamine D1 receptor (Homo sapiens, UniProt P21728); assay: CRE-luciferase reporter gene assay in HEK-D1/CRE/Luc2P cells; format: cell-based; details: for Emax / antagonist profile in luciferase reporter gene assay: dopamine 2 nM; for Emax: read-out: % Maximal Inhibition Mean ± SD (N = 3), Luciferase; for inhibition at 12.5 µM: single screening concentration 12.5 μM, read-out: inhibition in single-concentration screening (activity threshold); for antagonist profile in luciferase reporter gene assay: concentration-response, Figure 4A / Figure S3
T1 construct: Dopamine D1 receptor gene cloned in pcDNA 3.1 was kindly provided by Dr. Olivier Civelli; expressed in transfected cells
T1 sequence (P21728 whole entry): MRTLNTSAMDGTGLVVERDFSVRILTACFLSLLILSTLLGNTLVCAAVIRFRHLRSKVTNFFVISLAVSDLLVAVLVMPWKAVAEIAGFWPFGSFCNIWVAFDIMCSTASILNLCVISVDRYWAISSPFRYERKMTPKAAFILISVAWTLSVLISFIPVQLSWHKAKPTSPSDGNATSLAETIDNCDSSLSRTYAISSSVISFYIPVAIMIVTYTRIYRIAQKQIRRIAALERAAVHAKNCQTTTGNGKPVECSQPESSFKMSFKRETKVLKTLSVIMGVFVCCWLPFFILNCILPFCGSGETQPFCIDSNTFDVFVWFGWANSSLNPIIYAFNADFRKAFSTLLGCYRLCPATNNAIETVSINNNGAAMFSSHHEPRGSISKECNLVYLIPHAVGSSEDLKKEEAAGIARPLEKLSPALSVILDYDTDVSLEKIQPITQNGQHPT
Excerpt: The cDNA plasmids of dopamine D1 receptor and CRE/Luci were stably co-transfected into human embryonic kidney-293 cells (HEK293) cells (HEK-D1/CRE/Luc2P). Activation of D1 receptors leads to the elevation of cAMP and activates the cAMP response element (CRE) and therefore induces the expression of the reporter gene luciferase. We used the natural ligand dopamine as a positive control to select the cell colony and to optimize and characterize the HEK-D1/CRE/Luc2P cell system.
as §1, §2
(§3) All statistical calculations were performed using GraphPad Prism 5.0 (GraphPad, Avenida, CA, USA). Data from each dose-response curve were normalized to the maximal stimulation by dopamine. At least three independent experiments were performed.

human D1 receptors = molecular target: T2, human D1 receptors (Homo sapiens, UniProt P21728); assay: Fluorescent Ca2+ mobilization assay (FLIPR) in HEK 293T cells expressing D1 receptors and Gα15; format: cell-based; details: for antagonist profile in FLIPR assay: concentration-response, Figure 4B; for antagonist profile in FLIPR assay / % Maximal Inhibition Mean ± SD (N = 3), FLIPR: dopamine 500 nM
T2 construct: The cDNA plasmids of D1-like receptors were stably transfected into HEK 293T cells; expressed in transfected cells
T2 sequence (P21728 whole entry): as above
Procedure: We used a fluorescent Ca^2+ mobilization assay to further evaluate the hit compounds obtained from the luciferase reporter gene assay screens. […] With the coexpression of Gα15 protein, D1 receptors can be redirected to mediate intracellular calcium mobilization upon stimulation. Calcium levels were monitored using fluorometric imaging plate reader (FLIPR). The assay can also distinguish potential antagonists from agonists.
Fluorescent Ca^2+ mobilization assay was performed using Flu-4 AM reagent as reported earlier.
as §3

[1] = inhibition of dopamine (2 nM) response, HEK-D1/CRE/Luc2P cells, IC50 based on the degree of maximal inhibition, read-out: IC50 (μM) with 95% Confidence Intervals, Luciferase
[2] = inhibition of dopamine (500 nM) Ca2+ mobilization, HEK-D1/Gα15 cells, IC50 based on the degree of maximal inhibition, read-out: IC50 (μM) with 95% Confidence Intervals, FLIPR

Compound	Emax (dopamine D1 receptor; HEK-D1/CRE/Luc2P cells) [%]	IC50 (dopamine D1 receptor; [1]) [µM]	inhibition at 12.5 µM (dopamine D1 receptor) [%]	% Maximal Inhibition Mean ± SD (N = 3), FLIPR (human D1 receptors; HEK-D1/Gα15 cells) [%]	IC50 (human D1 receptors; [2]) [µM]	antagonist profile in luciferase reporter gene assay (dopamine D1 receptor)	decrease of forskolin-stimulated response (cAMP levels) (HEK/CRE/Luc2P cells) [%]	antagonist profile in FLIPR assay (human D1 receptors)	IC50 (dopamine D1 receptor) [µM]	EC50 (HEK/CRE/Luc2P cells; Homo sapiens, Figure S1, read-out: EC50 for increasing intracellular cAMP (CRE-luciferase)) [nM]	IC50 (human D1 receptors) [µM]
COc1cc2c(cc1OC)-c1cc3ccc(OC)c(OC)c3c[n+]1CC2 [Compound 8, Palmatine]	93.86 ± 0.437	–	≥ 50	–	–	–	25	weak inhibitory effects	7.08	–	–
C=C[C@@]1(C)CC(=O)[C@]2(O)[C@@]3(C)[C@@H](O)CCC(C)(C)[C@@H]3[C@H](O)[C@H](OC(C)=O)[C@@]2(C)O1 [Forskolin, reference compound]	–	–	–	–	–	–	–	–	–	1200	–
COc1cc2c(cc1OC)-c1c(C)c3ccc(OC)c(OC)c3c[n+]1CC2 [Compound 7, Dehydrocorydaline]	98.23 ± 0.33	1.29	≥ 50	90.61 ± 0.6541	1.53	–	–	concentration-dependent antagonist responses	–	–	–
COc1cc2c(cc1O)-c1cc3ccc(OC)c(OC)c3c[n+]1CC2 [Compound 9, Columbamine]	97.5 ± 0.218	–	≥ 50	86.43 ± 0.7188	–	–	–	concentration-dependent antagonist responses	1.21	–	3.4

Continued, in another order:

Emax (dopamine D1 receptor; HEK-D1/CRE/Luc2P cells) [%]	IC50 (dopamine D1 receptor; [1]) [µM]	inhibition at 12.5 µM (dopamine D1 receptor) [%]	% Maximal Inhibition Mean ± SD (N = 3), FLIPR (human D1 receptors; HEK-D1/Gα15 cells) [%]	IC50 (human D1 receptors; [2]) [µM]	antagonist profile in luciferase reporter gene assay (dopamine D1 receptor)	Compound	decrease of forskolin-stimulated response (cAMP levels) (HEK/CRE/Luc2P cells) [%]	antagonist profile in FLIPR assay (human D1 receptors)	IC50 (dopamine D1 receptor) [µM]	EC50 (HEK/CRE/Luc2P cells; Homo sapiens, Figure S1, read-out: EC50 for increasing intracellular cAMP (CRE-luciferase)) [nM]	IC50 (human D1 receptors) [µM]
86 ± 1.76	10.3	≥ 50	77.04 ± 6.6410	3.08	–	COc1cc2c(cc1OC)-c1c(C)c3ccc(O)c(OC)c3c[n+]1CC2 [Compound 5, 13-methyldehydrocorydalmine]	25	concentration-dependent antagonist responses	–	–	–
72.5 ± 4	0.644	≥ 50	92.64 ± 1.7945	2.24	partial antagonist effects	COc1cc2c(cc1OC)[C@@H]1Cc3ccc(OC)c(OC)c3CN1CC2 [Compound 2, Tetrahydropalmatine]	–	concentration-dependent antagonist responses	–	–	–
83.5 ± 1.45	2.46	≥ 50	90.32 ± 1.9817	3.36	–	COc1cc2c(cc1OC)[C@H]1[C@@H](C)c3ccc(OC)c(OC)c3CN1CC2 [Compound 4, Corydaline]	–	concentration-dependent antagonist responses	–	–	–
97.52 ± 0.626	0.621	≥ 50	94.38 ± 0.1939	0.612	–	COc1cc2c(cc1O)CC[n+]1cc3c(OC)c(OC)ccc3c(C)c1-2 [Compound 6, Dehydrocorybulbine]	–	concentration-dependent antagonist responses	–	–	–
78.2 ± 1.78	13.4	≥ 50	–	–	partial antagonist effects	COc1cc2c(cc1O)C1Cc3ccc(OC)c(OC)c3C[N+]1(C)CC2 (stereo not shown) [Compound 10, N-methyltetrahydrocolumbamine]	–	weak inhibitory effects	–	–	–

— publication PMC6222624, “Identification of Alkaloids from Corydalis yanhusuo W. T. Wang as Dopamine D1 Receptor Antagonists by Using CRE-Luciferase Reporter Gene Assay” (Molecules : A Journal of Synthetic Chemistry and Natural …, 2018)
